Test results reported in patent publication US10258629B2, “Liposomal drug encapsulation” (priority 2014, dated 2019).

Assays:
[1] = 0.8 mg/Kg injected as free staurosporine; 'would very likely be'; cited from earlier work
[2] = Acute toxicity of free staurosporine; details: 5 mg/Kg free staurosporine
U87 cells = assay: In vivo anti-tumor activity against very large U87 flank tumors (FIG. 9); details: treatment over two weeks
[3] = Reverse pH gradient encapsulation efficiency of staurosporine in liposomes
Method: The dried lipid film was hydrated with a buffer containing ammonium phosphate, ammonium sulfate, sodium phosphate, or sodium sulfate (300 mM, 7.4) and vortexed for 1 minute to remove any adhering lipid film. Sonication in a bath sonicator (ULTRAsonik 28X) for 1 minute at room temperature produced multilamellar vesicles (MLV). ME-Vs were then sonicated with a Ti-probe (Branson 450 sonifier) for 2 minutes to produce small unilamellar vesicles (SUV), indicated by the formation of a translucent solution. Extrusion through a 100 nm pore size polycarbonate filter (Whatman) was the final stage of a stepwise series of extrusions to reduce SUV size.
The prepared liposomes with internal buffer at pH 3 or 7.4 were passed through a Sephadex G-50 column equilibrated with HEPES buffered saline (FIBS; 20 mM HEPES, 150 mM NaCl, pH 7.4) to exchange the external buffer.

For `CN[C@@H]1C[C@H]2O[C@@](C)([C@@H]1OC)n1c3ccccc3c3c4c(c5c6ccccc6n2c5c31)C(=O)NC4` [free staurosporine, (9S, 10R, 11R, 13R)-2,3,10,11,12,13-Hexahydro-10-methoxy-9-methyl-11-(methylamino)-9,13-epoxy-1H,9H-diindolo[1,2,3-gh:3′,2′r-lm]pyrrolo[3,4-j][1,7]benzodiazonin-1-one], the “Fraction cleared after only one circulatory pass” value [1] is listed as 99%, the Acute lethality [2] is listed as “acutely lethal” and the Body weight (U87 cells) is listed as “body weight did decline”. The Tumor growth (U87 cells; tumors 180-200 mm^3 at start, relative to PBS, p<0.004 for liposomal) was “no demonstrable effect”, the “Increase of encapsulation when a pH gradient existed” value ([3]; internal buffer pH 7.4 versus pH 3, external buffer constant at pH 3) was 14 fold and the Encapsulation rate ([3]; internal pH 5, external pH 7.4) was “very low encapsulation rates”. For the same compound, the “Liposomal loading capacity, peak value” ([3]; lipid to drug ratio 11.11 (mole/mole)) was 70%.
